From US20030083469A1, “Allosteric control of nuclear hormone receptors” (The Salk Institute for Biological Studies, priority 1995, published 2003)

How the values were obtained:
Assay type in all cases: cell-based
RXR = molecular target: T1, RXR (Homo sapiens, UniProt P19793); assay: Transient transfection of RXR on CRBPII TK-LUC reporter; details: limiting RXR (20 ng/10^5 cells); LG69
T1 construct: transient transfection analysis of full-length Nurrl and/or RXR; expressed in transfected cells; host or cells: CV-1
T1 sequence (P19793 1-462): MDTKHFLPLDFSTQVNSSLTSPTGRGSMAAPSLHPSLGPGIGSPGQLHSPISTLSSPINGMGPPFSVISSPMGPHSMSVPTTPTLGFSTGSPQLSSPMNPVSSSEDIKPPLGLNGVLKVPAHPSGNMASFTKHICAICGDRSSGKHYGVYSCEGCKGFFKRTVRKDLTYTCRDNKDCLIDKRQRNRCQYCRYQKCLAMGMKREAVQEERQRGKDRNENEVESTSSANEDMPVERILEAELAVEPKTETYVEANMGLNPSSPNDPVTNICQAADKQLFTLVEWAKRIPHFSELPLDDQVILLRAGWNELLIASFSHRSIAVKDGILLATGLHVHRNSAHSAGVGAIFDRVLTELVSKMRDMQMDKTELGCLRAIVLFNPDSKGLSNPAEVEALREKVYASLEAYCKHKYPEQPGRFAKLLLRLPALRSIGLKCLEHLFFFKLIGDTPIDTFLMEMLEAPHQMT
Procedure: CV-1 cells were grown in Dulbecco's Modified Eagle's medium supplemented with 10% resin-charcoal stripped (Samuels et al., Endocrinology 105:80-85 (1979)) fetal bovine serum, 50 U/ml penicillin G and 50 μg/ml streptomycin sulfate (DMEM-FBS) at 37° C. in 5% CO2. One day prior to transfection, cells were plated to 50-80% confluence using phenol-red free DMEM-FBS. Cells were transfected by lipofection using N-{2-(2,3)-dioleoyloxy)propyl-N,N,N-trimethyl ammonium methyl sulfate} according to the manufacturer's instructions (DOTAP, Boehringer Mannheim). […]. All points were performed in triplicate in each experiment and varied by less than 10%. Each experiment was repeated three or more times with similar results.
Using sub-optimal amounts of RXR-expression vector, the CRBPII reporter was compared with a 3-copy NBRE reporter as follows. Cells were transfected as described with respect to FIG. 7B, but with a 5-fold lower amount of CMX-hRXRα (20 ng/10^5 cells). CRBPII TK-LUC (300 ng/10^5 cells) was used where indicated.

GAL-RXR+T3R LBD = molecular target: T2, GAL-RXR+T3R LBD (Homo sapiens, UniProt P10828+P19793); assay: Transient transfection analysis of GAL-RXR LBD in the presence of T3R LBD
T2 construct: human RXRα LBD (Glu 203 - Thr 462); human T3Rβ LBD (Leu 173 - Asp 456); expressed in transfected cells; host or cells: CV-1
T2 sequence (P19793 203-462 limits assumed): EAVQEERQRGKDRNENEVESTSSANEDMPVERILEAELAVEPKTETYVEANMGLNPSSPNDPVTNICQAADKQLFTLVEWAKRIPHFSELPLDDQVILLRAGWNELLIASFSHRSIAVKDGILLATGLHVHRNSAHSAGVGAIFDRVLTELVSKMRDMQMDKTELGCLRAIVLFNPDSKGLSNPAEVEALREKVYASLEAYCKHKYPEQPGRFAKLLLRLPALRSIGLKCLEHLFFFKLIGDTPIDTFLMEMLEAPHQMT
T2 sequence (P10828 178-461 limits assumed): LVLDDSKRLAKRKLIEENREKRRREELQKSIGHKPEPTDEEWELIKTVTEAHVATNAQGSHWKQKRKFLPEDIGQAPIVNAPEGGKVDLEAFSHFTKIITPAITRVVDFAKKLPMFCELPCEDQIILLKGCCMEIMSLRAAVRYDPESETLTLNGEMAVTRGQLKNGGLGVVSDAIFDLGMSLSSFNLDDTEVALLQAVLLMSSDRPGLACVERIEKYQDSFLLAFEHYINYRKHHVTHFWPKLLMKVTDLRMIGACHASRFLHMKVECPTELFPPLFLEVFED
Procedure: (§1) One day prior to transfection, cells were plated to 50-80% confluence using phenol-red free DMEM-FBS. Cells were transfected by lipofection using N-{2-(2,3)-dioleoyloxy)propyl-N,N,N-trimethyl ammonium methyl sulfate} according to the manufacturer's instructions (DOTAP, Boehringer Mannheim).
Normalized luciferase activity was determined and plotted as fold-activation relative to untreated cells.

T3R-RXR heterodimers = molecular target: T3, T3R-RXR heterodimers (Homo sapiens, UniProt P10828+P19793); assay: Transient transfection analysis of T3R-RXR heterodimers (TK-LUC reporter, CV-1 cells)
T3 construct: transient transfection analysis of full-length Nurrl and/or RXR; expressed in transfected cells; host or cells: CV-1
T3 sequence (P10828 1-461): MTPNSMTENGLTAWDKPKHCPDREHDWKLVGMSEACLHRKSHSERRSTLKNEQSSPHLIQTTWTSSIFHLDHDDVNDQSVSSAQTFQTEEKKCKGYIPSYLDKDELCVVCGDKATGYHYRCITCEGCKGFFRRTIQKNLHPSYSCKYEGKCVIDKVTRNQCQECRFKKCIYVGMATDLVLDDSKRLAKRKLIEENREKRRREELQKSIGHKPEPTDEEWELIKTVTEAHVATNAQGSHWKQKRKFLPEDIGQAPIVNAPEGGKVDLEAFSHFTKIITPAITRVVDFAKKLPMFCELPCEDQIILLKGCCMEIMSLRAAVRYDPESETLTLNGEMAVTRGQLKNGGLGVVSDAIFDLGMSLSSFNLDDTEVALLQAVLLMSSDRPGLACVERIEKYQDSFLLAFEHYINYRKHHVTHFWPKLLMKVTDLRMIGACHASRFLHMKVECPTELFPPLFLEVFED
T3 sequence (P19793 1-462): T1 sequence (P19793 1-462)
Procedure: as §1
Since T3R and RAR function as heterodimers with RXR, RXR responsiveness was examined in the context of RXR-T3R and RXR-RAR heterodimers. Attention is directed to FIG. 2, wherein transient transfection analysis of T^3R-RXR and RAR-RXR heterodimers is described. Reporter constructs employed contain the HRE indicated in the figure, cloned upstream of the TK-LUC reporter. In the left panel of the figure, CV-1 cells were transfected with the following plasmids: HRE×2 - TK-LUC (300 ng/10^5 cells), CMX-hT3Rβ (20 ng/10^5 cells), CMX-hRXRα (20 ng/10^5 cells) and the internal control CMX-βgal (500 ng/10^5 cells) .

CC=C(c1ccc(C(=O)O)cc1)c1cc2c(cc1C)C(C)(C)CCC2(C)C [LG69, 4-{1-(3,5,5,8,8-pentamethyl-5,6,7,8-tetrahydro-2-napthalenyl)-1-propenyl}benzoic acid]
activation of the CRBPII reporter (RXR): minimal activation
activity of T3+LG69 compared with T3 alone (GAL-RXR+T3R LBD; 100 nM T3+100 nM LG69): slightly less activity
fold response to LG69 (GAL-RXR+T3R LBD; GAL-RXR+T3R LBD (unliganded), 100 nM LG69): 57 fold
effect of LG69 added to T3 on the response to T3 (T3R-RXR heterodimers; 100 nM T3+100 nM LG69 versus T3 alone): somewhat reduced
responsiveness of transfected cells to ligand (luciferase fold-activation) (T3R-RXR heterodimers; CV-1 cells transfected with T3Rβ and RXRα, 100 nM T3 or 100 nM LG69): not responsive
